Test results published in patent publication US11014911B2, “CDK2 inhibitors” (Pfizer Inc., priority 2019, dated 2021).
Where two headings read alike, the source gives them in different places.

Tests used:
CDK6/cyclin D3 = CDK6/cyclin D3 (Homo sapiens (Human), UniProt Q00534); assay: CDK6/Cyclin D3 mobility shift assay; settings: Biochemical Assay: CDK6/cyclin D3
Excerpt: CDK6/Cyclin D3 Mobility Shift Assay

[1] = target: CDK2/Cyclin E1 full length (Homo sapiens (Human), UniProt P24941); assay: CDK2/Cyclin E1 full length mobility shift assay; type: biochemical
Description: Cdk2/Cyclin E1 Full Length Mobility Shift Assay
Wild-type CDK2/wild-type full length Cyclin E1 enzyme complex was produced in-house (baculoviral expression, LJIC-2080/LJIC-2103) and phosphorylated by CDK7/Cyclin H1/Matl enzyme complex with CDK2:CDK7 ratio of 50:1 (concentration mg/mL) in the presence of 10 mM MgCl2 and 5 mM ATP at room temperature for one hour. […] The assay was initiated with the addition of ATP, following a fifteen minutes pre-incubation of enzyme and inhibitor at room temperature in the reaction mixture. The reaction was stopped after 45 minutes at room temperature by the addition of 50 μL of 80 mM EDTA.

GSK3β (H350L) [2] = target: T1, GSK3β (H350L) (Homo sapiens (Human), UniProt P49841); settings: read-out: GSK3β Ki
Description: (§1) The assay was initiated with the addition of ATP, following 15 minutes pre-incubation of enzyme and inhibitor at room temperature in the reaction mixture. The reaction was stopped after 30 minutes at room temperature by the addition of 50 μL of 80 mM EDTA.

CDK9 = CDK9 (Homo sapiens (Human), UniProt P50750); assay: CDK9 biochemical assay
CDK1/cyclin A2 = CDK1/cyclin A2 (Homo sapiens (Human), UniProt P06493); assay: CDK1/cyclin A2 biochemical assay
GSK3β (H350L) [3] = target: T1, GSK3β (H350L); assay: biochemical; settings: GSK3β Ki (nM)
Description: as §1

T1 sequence (P49841 whole entry, stated change not applied): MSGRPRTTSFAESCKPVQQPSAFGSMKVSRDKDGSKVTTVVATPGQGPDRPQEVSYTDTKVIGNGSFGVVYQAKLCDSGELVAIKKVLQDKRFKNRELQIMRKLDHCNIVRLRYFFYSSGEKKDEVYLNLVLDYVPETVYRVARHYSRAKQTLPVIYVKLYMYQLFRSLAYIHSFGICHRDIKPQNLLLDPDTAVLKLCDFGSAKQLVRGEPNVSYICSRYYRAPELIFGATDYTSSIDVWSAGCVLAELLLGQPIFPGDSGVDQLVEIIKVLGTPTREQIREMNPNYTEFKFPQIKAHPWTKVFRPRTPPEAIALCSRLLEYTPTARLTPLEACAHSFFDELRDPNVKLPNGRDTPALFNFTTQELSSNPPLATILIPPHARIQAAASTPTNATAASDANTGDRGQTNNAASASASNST
Chain of CDK6/cyclin D3 (Q00534 whole entry, looked up): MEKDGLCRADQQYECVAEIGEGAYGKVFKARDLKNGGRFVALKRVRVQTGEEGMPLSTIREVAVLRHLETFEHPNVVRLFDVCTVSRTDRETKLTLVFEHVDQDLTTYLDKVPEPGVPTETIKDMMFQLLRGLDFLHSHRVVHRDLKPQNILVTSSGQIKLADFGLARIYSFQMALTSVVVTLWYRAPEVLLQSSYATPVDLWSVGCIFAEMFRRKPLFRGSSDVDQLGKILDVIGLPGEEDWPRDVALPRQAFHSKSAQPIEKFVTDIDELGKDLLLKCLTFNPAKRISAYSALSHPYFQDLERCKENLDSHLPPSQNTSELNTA
Chain of CDK6/cyclin D3 (P30281 whole entry partner, looked up): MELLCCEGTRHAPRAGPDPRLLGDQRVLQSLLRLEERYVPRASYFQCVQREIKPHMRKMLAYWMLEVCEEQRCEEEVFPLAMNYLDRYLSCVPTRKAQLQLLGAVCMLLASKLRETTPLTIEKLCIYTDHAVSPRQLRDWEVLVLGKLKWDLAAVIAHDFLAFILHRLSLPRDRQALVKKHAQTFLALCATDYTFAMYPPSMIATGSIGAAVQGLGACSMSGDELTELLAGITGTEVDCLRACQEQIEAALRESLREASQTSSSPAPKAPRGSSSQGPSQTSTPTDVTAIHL
Chain of CDK9 (P50750 whole entry, looked up): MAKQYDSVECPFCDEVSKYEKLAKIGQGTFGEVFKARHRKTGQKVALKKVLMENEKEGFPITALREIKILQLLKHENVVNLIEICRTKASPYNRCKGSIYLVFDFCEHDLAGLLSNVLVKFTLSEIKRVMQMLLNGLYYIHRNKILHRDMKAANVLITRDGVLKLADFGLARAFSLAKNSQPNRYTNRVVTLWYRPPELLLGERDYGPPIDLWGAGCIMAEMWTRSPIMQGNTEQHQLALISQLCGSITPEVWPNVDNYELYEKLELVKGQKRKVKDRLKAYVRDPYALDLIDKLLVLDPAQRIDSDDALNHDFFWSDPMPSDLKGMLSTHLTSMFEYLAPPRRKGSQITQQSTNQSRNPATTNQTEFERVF
Chain of CDK9 (O60563 whole entry partner, looked up): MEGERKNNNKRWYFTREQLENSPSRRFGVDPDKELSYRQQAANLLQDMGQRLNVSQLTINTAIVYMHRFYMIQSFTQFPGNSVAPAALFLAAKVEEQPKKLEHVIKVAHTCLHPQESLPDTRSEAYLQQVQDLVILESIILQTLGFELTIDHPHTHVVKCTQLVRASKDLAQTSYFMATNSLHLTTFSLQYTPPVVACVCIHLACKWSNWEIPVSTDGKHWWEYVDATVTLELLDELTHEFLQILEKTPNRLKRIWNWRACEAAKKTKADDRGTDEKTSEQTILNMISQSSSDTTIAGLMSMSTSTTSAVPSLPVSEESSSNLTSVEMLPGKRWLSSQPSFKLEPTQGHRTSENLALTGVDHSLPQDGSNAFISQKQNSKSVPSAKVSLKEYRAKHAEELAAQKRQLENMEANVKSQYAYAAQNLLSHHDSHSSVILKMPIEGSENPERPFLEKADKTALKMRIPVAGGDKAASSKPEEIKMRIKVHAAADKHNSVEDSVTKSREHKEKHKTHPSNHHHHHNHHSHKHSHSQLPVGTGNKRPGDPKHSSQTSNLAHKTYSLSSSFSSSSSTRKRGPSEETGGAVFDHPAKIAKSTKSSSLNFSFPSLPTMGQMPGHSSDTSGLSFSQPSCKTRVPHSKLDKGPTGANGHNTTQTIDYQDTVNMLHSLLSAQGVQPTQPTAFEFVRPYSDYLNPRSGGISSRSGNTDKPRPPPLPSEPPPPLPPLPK
Chain of CDK1/cyclin A2 (P06493 whole entry, looked up): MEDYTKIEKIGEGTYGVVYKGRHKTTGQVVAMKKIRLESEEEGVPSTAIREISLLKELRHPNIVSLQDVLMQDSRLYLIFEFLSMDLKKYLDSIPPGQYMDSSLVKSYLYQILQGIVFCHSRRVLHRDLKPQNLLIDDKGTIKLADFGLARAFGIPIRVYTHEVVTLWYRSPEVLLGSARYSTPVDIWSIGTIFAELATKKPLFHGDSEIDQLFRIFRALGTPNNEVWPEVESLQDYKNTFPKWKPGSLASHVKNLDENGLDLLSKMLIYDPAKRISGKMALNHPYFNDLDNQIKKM
Chain of CDK1/cyclin A2 (P20248 whole entry partner, looked up): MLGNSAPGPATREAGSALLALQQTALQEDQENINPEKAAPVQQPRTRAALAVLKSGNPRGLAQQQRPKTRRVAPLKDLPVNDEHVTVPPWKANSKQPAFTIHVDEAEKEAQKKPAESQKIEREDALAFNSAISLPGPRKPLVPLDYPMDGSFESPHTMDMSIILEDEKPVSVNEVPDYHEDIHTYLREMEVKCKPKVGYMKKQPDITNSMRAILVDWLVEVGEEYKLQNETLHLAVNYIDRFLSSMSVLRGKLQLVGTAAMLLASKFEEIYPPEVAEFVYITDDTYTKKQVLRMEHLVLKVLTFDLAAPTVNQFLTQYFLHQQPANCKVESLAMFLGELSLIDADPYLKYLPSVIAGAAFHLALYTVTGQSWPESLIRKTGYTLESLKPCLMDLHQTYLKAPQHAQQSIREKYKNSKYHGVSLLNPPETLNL

Compound	Ki (CDK6/cyclin D3) [nM]	Ki [1] [nM]	Ki (GSK3β (H350L) [2]) [nM]	Ki (CDK9) [nM]	Ki (CDK1/cyclin A2) [nM]	Ki (GSK3β (H350L) [3]) [nM]
Cc1cc(CC(=O)Nc2cc([C@H]3CC[C@@H](OC(=O)NC4(C)CC4)C3)[nH]n2)on1 [Example 15, (1R,3S)-3-(3-{[(3-methyl-1,2-oxazol-5-yl)acetyl]amino}-1H-pyrazol-5-yl)cyclopentyl (1-methylcyclopropyl)carbamate]	58.6	0.17	29.3	6.3	16.4	–
COCc1cc(C(=O)Nc2cc([C@H]3CC[C@@H](OC(=O)NC(C)C)C3)[nH]n2)n(C)n1 [Example 13, (1R,3S)-3-[3-({[3-(methoxymethyl)-1-methyl-1H-pyrazol-5-yl]carbonyl}amino)-1H-pyrazol-5-yl]cyclopentyl propan-2-ylcarbamate]	465	–	538	177	–	–
COc1cnc(CC(=O)Nc2cc([C@H]3CC[C@@H](OC(=O)NC(C)CC(F)(F)F)C3)[nH]n2)cn1 (single isomer, unassigned) [Example 68]	–	0.36	–	–	–	16.3
Cc1cnc(CC(=O)Nc2cc([C@@H]3CC[C@H](OC(=O)NC4(C)CCOC4)C3)[nH]n2)o1 (single isomer, unassigned) [Example 475]	–	0.83	–	–	–	23.9
CCC(CO)CNC(=O)O[C@@H]1CC[C@H](c2cc(NC(=O)Cc3ccnc(OC)c3)n[nH]2)C1 (single isomer, unassigned) [Example 535]	–	1.21	–	–	–	3.8
